Assay results as given in patent publication US20250002526A1, “PHARMACEUTICAL COMPOSITION HAVING ANTI-CANCER IMMUNOSTIMULATING EFFECT AND/OR IMMUNE CHECKPOINT INHIBITION POTENTIATING EFFECT” (KYUSHU UNIVERSITY, NATIONAL UNIVERSITY CORPORATION, priority 2021, published 2025).

Assays:
[1] = target: T1, recombinant human SULT2B1b protein (Homo sapiens, UniProt O00204); assay: SULT assay (in vitro SULT2B1b enzymatic activity measurement); assay type: biochemical; settings: test compound 200 μM; relative to DMSO control (100%); read-out: in vitro SULT2B1b assay % activity at 200 μM
T1 sequence (O00204 1-365): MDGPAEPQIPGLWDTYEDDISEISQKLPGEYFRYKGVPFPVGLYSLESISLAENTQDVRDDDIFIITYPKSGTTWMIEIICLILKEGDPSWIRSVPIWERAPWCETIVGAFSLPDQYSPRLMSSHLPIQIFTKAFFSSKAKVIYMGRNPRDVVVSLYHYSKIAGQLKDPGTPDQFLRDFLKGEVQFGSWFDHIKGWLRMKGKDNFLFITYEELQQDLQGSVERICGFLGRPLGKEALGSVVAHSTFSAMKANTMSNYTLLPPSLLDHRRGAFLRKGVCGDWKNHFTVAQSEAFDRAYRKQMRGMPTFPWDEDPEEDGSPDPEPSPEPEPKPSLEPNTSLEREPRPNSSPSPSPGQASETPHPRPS
Procedure: For screening for a SULT2B1b inhibitor, enzymatic activity measurement for SULT2B1b was carried out by a method described in a previous report (NPL 2) with slight modifications.
The reaction solution (50 μl) was composed of 1 to 5 μg of recombinant human SULT2B1b protein, 10 μM [^3H]cholesterol (approximately 4,000 dpm/pmol), 10 mM Tris-HCl (pH 7.5, containing 5 mM MgCl2) containing 0.1 mM 3′-phosphoadenosine 5′-phosphosulfate (PAPS), 0.2 mM 2-hydroxypropyl-β-cyclodextrin, and 5% (v/v) ethanol. Recombinant human SULT2B1b protein was pre-incubated with 1 μl of a test compound (final concentration: 40 or 200 μM) or DMSO (control) at room temperature for 15 minutes, 2 mM PAPS (2.5 μl) was then added to initiate reaction, the resultant was reacted at 37° C. for 15 minutes, and 0.8 ml of ethanol was added to terminate the reaction.
The solution after the reaction was subjected to thin-layer chromatography (TLC) for separation, and then to a liquid scintillation counter to quantify radiolabeled CS.
From the percentage to the amount ([…]) of radiolabeled CS generated through reaction in the absence of the test compound (DMSO) (control), the SULT2B1b activity (% activity) of SULT2B1b protein in the presence of the test compound was evaluated, and the effect of the test compound to inhibit SULT2B1b-mediated CS production (CS production inhibitory effect) was evaluated.
In enzyme assay, SULT assay was performed with use of cholenoic acid as a compound to be tested at different cholesterol and PAPS concentrations (wherein 0.5 to 1 μg of recombinant human SULT2B1b protein was used, the preincubation time and reaction time were each 10 minutes), and the results were fitted to the Michaelis-Menten equation by using Prism 9 (GraphPad Software, Inc.) to perform enzyme kinetic analysis for the inhibition by cholenoic acid.
SULT assay was performed for the compounds as test compounds by the method described in (14) of “II. Experimental procedure” in Experiment Example 1 to evaluate the SULT2B1b inhibitory effects of the compounds.

[2] = test system: SULT2B1b-mediated CS production in E0771-SULT cells; assay: CS production inhibitory effect in E0771-SULT cells (LC/MS/MS quantification of CS); assay type: cell-based, mouse; settings: Mus musculus, 24 h, read-out: CS production % activity at 10 μM, E0771-SULT cells, 24 hours, test compound 10 μM (Table 1); relative to control (100%)
Procedure: CS in each human cancer tissue sample was quantified by a method described in NPL 2. To monitor the amounts of CS and/or oxysterol generated in E0771, 3LL, EG.7-OVA, and MC38 cells irrespective of the presence or absence of SULT2B1b expression, cells of each type were seeded in a 6-well plate at 5×10^5 cells/well, and the culture supernatant and cell pellet were collected after 24 hours. Subsequently, deuterium-labeled internal standard (IS) compounds (d7-CS [[…]] and d6-25-hydroxycholesterol) were added to fractions of the culture supernatant and cell pellet, each of which was subjected to extraction with 1 mL of extraction solvent (methanol/chloroform/water=5:2:2 [v/v/v]) to extract CS and oxysterol from the culture supernatant or cell pellet.
Each sample was vigorously mixed with a vortex for 1 minute, and then ultrasonicated for 5 minutes. Thereafter, the sample was centrifuged at 16,000×g and 4° C. for 5 minutes, and the supernatant (700 μl) was collected in a clean tube. Into this, 235 μl of chloroform and 155 μl of water were added and mixed, and the resultant was then subjected to vortexing followed by centrifugation to separate into an aqueous layer and an organic layer. Subsequently, 200 μl of the lowermost layer was dried under a nitrogen flow.
The dried sample was dissolved in 50 μl of methanol, and CS and oxysterol therein were quantified by liquid chromatography-tandem mass spectrometry (LC/MS/MS) with a triple quadrupole mass spectrometer (LCMS-8060; Shimadzu Corporation) equipped with an electrospray ionization (ESI) ion source in a multiple reaction monitoring (MRM) mode.
• Column: Inertsil ODS-4 (2.1×150 mm; particle size: 3 μm; GL Sciences Inc.) • Column temperature: 40° C. • Flow rate: 0.3 ml/min • Mobile phase: (A) water/acetonitrile (1:2, v/v) containing 5 mM ammonium acetate (B) Methanol/Isopropanol (1:19, v/v) Containing 5 mM Ammonium Acetate • Gradient curve: 0 min→22 min: (B) 0%→100%, • 22 min→27 min: (B) 100%, • 27 min→27.1 min: (B) 100%→0%, • 27.1 min→30 min: (B) 0% • Injection volume: 5 μl • Mass spectrometry mode: positive and negative ion modes • Electrospray voltage: 4 kV in positive ion mode, −3.5 kV in negative ion mode • Nebulizer gas flow rate: 3.0 L/min • Drying gas flow rate: 10.0 L/min • Desolvation temperature: 250° C. • Heat block temperature: 400° C. • Detector voltage: 2.16 kV • Used were MRM mode and 2 msec of dwell time per channel.
Absolute CS and oxysterol contents were calculated from calibration curves. MRM calibration curves were prepared with chromatographic peak areas for the analytes relative to peak areas for internal standards through three times of analysis for standard solutions.
The CS production effects of test compounds (compounds 1 to 19, 21, 23, 25, and 27 to 32) were evaluated with the mouse breast cancer cell line E0771 expressing SULT2B1b (E0771-SULT cells).
Specifically, as in the above description in experimental procedure (12), E0771-SULT cells were seeded in a 6-well plate at a proportion of 5×10^5 cells/well, and cultured in the presence or absence (control) of each test compound for 24 hours. After culturing, CS generated in E0771-SULT cells was quantified by LC/MS/MS according to the description in experimental procedure (12). The CS production capacity (% activity) of cells cultured in the presence of each test compound was evaluated from the percentage relative to the CS production level (control) (100%) in E0771-SULT cells cultured in the absence of the test compound, and the CS production inhibitory effect of the test compound was evaluated.

Q: Which results are given for `C[C@H](CCC(=O)N1CCOCC1)[C@H]1CC[C@H]2[C@@H]3CC=C4C[C@H](N=[N+]=[N-])CC[C@]4(C)[C@H]3CC[C@]12C` [Compound 12, (R)-4-((3R,8S,9S,10R,13R,14S,17R)-3-azido-10,13-dimethyl-2,3,4,7,8,9,10,11,12,13,14,15,16,17-tetradecahydro-1H-cyclopenta[a]phenanthren-17-yl)-1-morpholinopentan-1-one]?
A: activity at 200 µM [1]: 8.3%; activity at 10 µM [2]: 98.4%
